From patent US10962541B2 (priority 2014, dated 2021) come the findings set out here.

Experiment [1] has as its system RhoA. The format is cell-based.
Experiment [2] deals with Rap1. It counts as cell-based, monkey.
For experiment [3], the system named is RhoA. It counts as cell-based, monkey.
Experiment [4] deals with polarized endothelial cells. The experiment in a line: Cell barrier function and viral infection in polarized endothelial cells. Particulars: unpublished results. The format is cell-based.
In experiment [5] the target is T1, Rac1 (Homo sapiens, UniProt P63000).
T1 construct: endogenous in cells; host or cells: HeLa (ATCC)
The experiment can be described thus: G-trap assay validation, active Rac1 in HeLa cells. Particulars: calpeptin-mediated activation of RhoA. The format is cell-based.

Consider `COc1ccc(C2CC(c3ccccc3)=NN2c2ccc(S(N)(=O)=O)cc2)cc1` (stereo not shown) [CID2950007], for which the RhoA activity entry in experiment [1] is “no effect on RhoA activity”.

For the compound `COC(=O)[C@H](CCSC)NC(=O)c1ccc(NC[C@@H](N)CS)cc1-c1ccccc1` [FTI277], the “increase in active Rap1” value in experiment [2] is recorded as around 2 fold.

On to `CCN(CC)CCCC(C)Nc1nc(C)cc(Nc2ccc3nc(C)cc(N)c3c2)n1` (stereo not shown) [NSC23766], for which, in experiment [1], the RhoA activity entry is “elevated relative to resting cells” and the “activation of RhoA relative to resting cells” value was above 5 fold. Besides, in experiment [3], the “RhoA-GTP above EGF stimulation alone” value was found to be 1.3 fold and the “RhoA-GTP increase above basal levels” value was 2 fold.

As for `C[C@@H](N)[C@H]1CC[C@H](C(=O)Nc2ccncc2)CC1` [Y27632], in experiment [4], the “loss of cell barrier function” value is reported as “blocks the loss of cell barrier function” and the viral infection entry is “limits viral infection”.

Consider `CCCC[C@@H](C=O)NC(=O)[C@H](CC(C)C)NC(=O)OCc1ccccc1` [calpeptin], for which, in experiment [3], the “increase in active RhoA” value was above 2 fold. In experiment [5], the Rac1 activity entry is given as “concomitant decrease in Rac1 activity”.
